Publication PMC7144120, “Psoralen Derivatives as Inhibitors of Mycobacterium tuberculosis Proteasome” (Molecules, 2020)

Key:
ß5i of IP = settings: cited from earlier work; for IC50: read-out: IC50 against ß5i of IP; for RA at 10 µM against ß5i of IP: residual activity of β5i in the presence of 10 μM compound; for Ki: read-out: Ki against ß5i of IP
Mtb proteasome = molecular target: T1, Mtb proteasome (Mycobacterium tuberculosis, UniProt P9WHT9); test: biochemical; format: biochemical; settings: for IC50: 50 µM Suc-LLVY-AMC, 30 min preincubation, 37 °C, triplicate, read-out: IC50 against the Mtb proteasome; for Hill Coefficient: from IC50 curve, Mtb proteasome
T1 construct: made in house
T1 sequence (P9WHT9 whole entry, looked up): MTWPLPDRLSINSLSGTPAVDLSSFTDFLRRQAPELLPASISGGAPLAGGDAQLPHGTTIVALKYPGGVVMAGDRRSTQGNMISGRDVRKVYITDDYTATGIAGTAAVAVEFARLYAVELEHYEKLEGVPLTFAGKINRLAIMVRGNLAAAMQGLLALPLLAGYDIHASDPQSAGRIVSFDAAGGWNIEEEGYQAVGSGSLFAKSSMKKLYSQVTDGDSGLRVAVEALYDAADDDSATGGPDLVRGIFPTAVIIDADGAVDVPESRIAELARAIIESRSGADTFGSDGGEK

Row | SMILES | IC50 (ß5i of IP) [µM] | RA at 100 µM against Mtb (Mtb proteasome) [%] | IC50 (Mtb proteasome) [µM] | Hill Coefficient (Mtb proteasome) | RA at 10 µM against ß5i of IP (ß5i of IP) [%] | Ki (ß5i of IP) [µM]
1 | COc1cccc(-c2coc3cc4oc(=O)c(CCC(=O)ON5C(=O)CCC5=O)c(C)c4cc23)c1 [Compound 69] | 0.93 ± 0.57 | 72 |  |  |  | 
2 | Cc1cc(-c2coc3cc4oc(=O)c(CC(=O)ON5C(=O)CCC5=O)c(C)c4cc23)c(C)o1 [Compound 14] | 6.9 |  | 9 ± 5 | 2.42 |  | 
3 | Cc1cc(-c2coc3cc4oc(=O)c(CCC(=O)O)c(C)c4cc23)c(C)o1 [Compound 23] |  | 76 |  |  | 100 | 
4 | Cc1c(CC(=O)NCC#N)c(=O)oc2cc3occ(-c4ccco4)c3cc12 [Compound 64] |  | 91 |  |  | 98 | 
5 | Cc1c(CCC(=O)ON2C(=O)CCC2=O)c(=O)oc2cc3occ(C4CCCCC4)c3cc12 [Compound 12] | 1.8 |  | 5 ± 2 | 1.05 |  | 
6 | Cc1c(CC(=O)N(C)CC#N)c(=O)oc2cc3occ(-c4ccccc4)c3cc12 [Compound 51] |  | 93 |  |  | 97 | 
7 | Cc1cc(-c2coc3cc4oc(=O)c(CC(=O)NCC#N)c(C)c4cc23)c(C)s1 [Compound 63] |  | 95 |  |  | 101 | 
8 | C/C=C/C(=O)Nc1c(C)c2cc3c(-c4ccccc4)coc3cc2oc1=O [Compound 87] |  | 93 |  |  | 102 | 
9 | Cc1c(CCC(=O)N(C)CC#N)c(=O)oc2cc3occ(-c4ccccc4)c3cc12 [Compound 40] |  | 100 |  |  | 92 | 
10 | COc1cccc(-c2coc3c(C)c4oc(=O)c(CCC(=O)O)c(C)c4cc23)c1 [Compound 36] |  | 87 |  |  | 72 | 
11 | Cc1c(CCC(=O)ON2C(=O)CCC2=O)c(=O)oc2c(C)c3occ(-c4ccccc4)c3cc12 [Compound 79] | 3.26 ± 1.49 | 100 |  |  |  | 
12 | Cc1coc2cc3oc(=O)c(CCC(=O)NCC#N)c(C)c3cc12 [Compound 47] |  | 95 |  |  | 105 | 
13 | Cc1c(CCC(=O)O)c(=O)oc2cc3occ(C4CCCCC4)c3cc12 [Compound 24] |  | 71 |  |  | 102 | 
14 | Cc1coc2cc3oc(=O)c(CCC(=O)O)c(C)c3cc12 [Compound 20] |  | 93 |  |  | 94 | 
15 | COc1cccc(-c2coc3cc4oc(=O)c(CCC(=O)O)c(C)c4cc23)c1 [Compound 18] |  | 100 |  |  |  | 29.6 ± 3.9
16 | C=CC(=O)Nc1c(C)c2cc3c(-c4ccccc4)coc3cc2oc1=O [Compound 86] | 20.5 ± 1.36 | 95 |  |  |  | 
17 | Cc1c(CCC(=O)ON2C(=O)CCC2=O)c(=O)oc2cc3occ(-c4ccccc4)c3cc12 [Compound 66] | 0.009 ± 0.002 | 66 |  |  |  | 
18 | Cc1c(CCC(=O)ON2C(=O)CCC2=O)c(=O)oc2cc3occ(C(C)(C)C)c3cc12 [Compound 70] |  | 70 |  |  | 41 | 
19 | Cc1cc(-c2coc3cc4oc(=O)c(CC(=O)O)c(C)c4cc23)c(C)s1 [Compound 30] |  | 93 |  |  |  | 36.5 ± 7.1
20 | COc1ccc(-c2coc3cc4oc(=O)c(CCC(=O)ON5C(=O)CCC5=O)c(C)c4cc23)cc1 [Compound 68] | 0.64 ± 0.13 | 93 |  |  |  | 
21 | C=CC(=O)NCc1c(C)c2cc3c(-c4ccccc4)coc3cc2oc1=O [Compound 82] |  | 68 |  |  | 90 | 
22 | Cc1c(CC(=O)O)c(=O)oc2cc3occ(-c4ccc(Br)cc4)c3cc12 [Compound 4] |  |  | 4 ± 3 | 1.59 |  | 12.7
23 | Cc1c(CC(=O)O)c(=O)oc2cc3occ(-c4ccco4)c3cc12 [Compound 31] |  | 79 |  |  |  | 89.3 ± 2
24 | COc1cccc(-c2coc3cc4oc(=O)c(CC(=O)O)c(C)c4cc23)c1 [Compound 27] |  | 98 |  |  |  | 7 ± 0.2
25 | Cc1c(CCc2nsc(=O)o2)c(=O)oc2cc3occ(-c4ccccc4)c3cc12 [Compound 90] | 0.2 ± 0.04 | 69 |  |  |  | 
26 | Cc1cc(-c2coc3cc4oc(=O)c(CCC(=O)O)c(C)c4cc23)c(C)s1 [Compound 21] |  | 99 |  |  |  | 52.3 ± 18
27 | Cc1c(CCC(=O)N(C)CC#N)c(=O)oc2cc3occ(C4CCCCC4)c3cc12 [Compound 45] |  | 92 |  |  | 111 | 
28 | Cc1c(CNC(=O)CC#N)c(=O)oc2cc3occ(-c4ccccc4)c3cc12 [Compound 81] |  | 100 |  |  | 101 | 
29 | Cc1c(CC(=O)O)c(=O)oc2cc3occ(C4CCCCC4)c3cc12 [Compound 33] |  | 90 |  |  |  | 198 ± 21
30 | COc1ccc(-c2coc3c(C)c4oc(=O)c(CCC(=O)O)c(C)c4cc23)cc1 [Compound 37] |  | 87 |  |  | 87 | 
